Reference: patent publication US20230265435A1, “COMPOSITION COMPRISING OSTEOPONTIN INHIBITOR AS ACTIVE INGREDIENT FOR PREVENTION, ALLEVIATION, OR TREATMENT OF NEURODEGENERATIVE DISEASE” (THE CATHOLIC UNIVERSITY OF KOREA INDUSTRY-ACADEMIC …, priority 2020, published 2023)

Test system: neural stem cells
Assay: Amyloid beta toxicity, MTT assay, OPN antagonist treatment
Assay type: cell-based
Method: Next, to confirm the function of the OPN protein for amyloid beta neurotoxicity, the inventors confirmed the level of amyloid beta toxicity according to the treatment of an OPN antagonist or OPN siRNA using neuronal cells.
Specifically, approximately 5×10^4 neural stem cells were seeded in a 24-well plate, and cultured at 37° C. in a CO2 incubator for 24 hours. The medium in the cell-containing plate was replaced with an antibiotic-free, 0.1% serum-containing medium, treated with 0.5 μM levocetirizine (Sigma-Aldrich, L7795, OPN antagonist), and after 6 to 7 hours, the cells were further treated with 3 μM amyloid beta, and after 48 hours of culture, cell viability was confirmed through an MTT assay.

| Substance | cell viability (neural stem cells treated with 3 μM amyloid beta alone) | amyloid beta toxicity (0.5 μM levocetirizine with 3 μM amyloid beta, 48 hours) |
| --- | --- | --- |
| amyloid beta | approximately 60% |  |
| levocetirizine |  | greatly decreased |
